# The source made the active and inactive calls. The rule behind the calls is not given here.
# Legend:
# Escherichia coli [1] = experiment: Inhibition of ethidium bromide accumulation in Escherichia coli KAM32 harboring pSP72 at 100 uM by fluorescence spectrophotometer; format: functional, organism-based
# Escherichia coli [2] = experiment: Antibacterial activity against Escherichia coli KAM32 harboring pSP72 by broth microdilution method; format: functional
# Staphylococcus aureus [3] = experiment: Inhibition of Staphylococcus aureus LmrS expressed in Escherichia coli KAM32 harboring pSP72 assessed as decrease of ethidium bromide efflux at 0.01 mM after 6 mins by fluorescence spectrophotometer relative to control
# Escherichia coli [4] = experiment: Ratio of MIC for Escherichia coli KAM32 harboring cloned pSP72 lmrS to MIC for Escherichia coli KAM32 harboring pSP72; format: functional
# Escherichia coli [5] = experiment: Antibacterial activity against Escherichia coli KAM32 harboring Staphylococcus aureus cloned pSP72 lmrS by broth microdilution method; format: functional
# Escherichia coli [6] = experiment: Antibacterial activity against Escherichia coli KAM32 harboring Staphylococcus aureus cloned pSP72 lmrS by broth microdilution method in presence of efflux pump inhibitor CCCP; format: functional
# Staphylococcus aureus [7] = experiment: Inhibition of Staphylococcus aureus LmrS expressed in Escherichia coli KAM32 harboring pSP72 assessed as decrease of ethidium bromide accumulation at 100 uM by fluorescence spectrophotometer relative to control
Compound,inhibition (Escherichia coli [1]),MIC (Escherichia coli [2]) [µg/mL],inhibition (Staphylococcus aureus [3]) [%],MIC ratio (Escherichia coli [4]),MIC (Escherichia coli [5]) [µg/mL],MIC (Escherichia coli [6]) [µg/mL],inhibition (Staphylococcus aureus [7]) [%]
N#CC(C#N)=NNc1cccc(Cl)c1 [CARBONYL CYANIDE M-CHLOROPHENYLHYDRAZONE],inactive,8,40,,,,
O=C(N[C@H](CO)[C@H](O)c1ccc([N+](=O)[O-])cc1)C(Cl)Cl [CHLORAMPHENICOL],,0.39,,8,3.13,,
CC[C@H]1OC(=O)[C@H](C)[C@@H](O[C@H]2C[C@@](C)(OC)[C@@H](O)[C@H](C)O2)[C@H](C)[C@@H](O[C@@H]2O[C@H](C)C[C@H](N(C)C)[C@H]2O)[C@](C)(O)C[C@@H](C)C(=O)[C@H](C)[C@@H](O)[C@]1(C)O [ERYTHROMYCIN],,1.9,,8.2,15.6,,
CS(=O)(=O)c1ccc([C@@H](O)[C@@H](CF)NC(=O)C(Cl)Cl)cc1 [FLORFENICOL],,0.39,,8,3.13,,
CC(=O)O[C@H]1C[C@@]2(C)[C@@H](C[C@@H](O)[C@H]3[C@@]4(C)CC[C@@H](O)[C@@H](C)[C@@H]4CC[C@@]32C)/C1=C(\CCC=C(C)C)C(=O)O [FUSIDIC ACID],,31.2,,8,250,62.5,
COc1c(N2CCNC(C)C2)c(F)cc2c(=O)c(C(=O)O)cn(C3CC3)c12 (stereo unspecified) [GATIFLOXACIN],,0.02,,4.1,0.08,,
CC[n+]1c(-c2ccccc2)c2cc(N)ccc2c2ccc(N)cc21.[Br-] [HOMIDIUM BROMIDE],,7.8,,8,62.5,,30
NC[C@H]1O[C@H](O[C@H]2[C@H](O)[C@@H](O[C@H]3O[C@H](CO)[C@@H](O)[C@H](N)[C@H]3O)[C@H](N)C[C@@H]2N)[C@H](O)[C@@H](O)[C@@H]1O [KANAMYCIN],,15.6,,8,125,,
CCC[C@@H]1C[C@@H](C(=O)N[C@@H]([C@H]2O[C@H](SC)[C@H](O)[C@@H](O)[C@H]2O)[C@@H](C)O)N(C)C1 [LINCOMYCIN],,31.2,,4,125,,
CC(=O)NC[C@H]1CN(c2ccc(N3CCOCC3)c(F)c2)C(=O)O1 [LINEZOLID],,1.95,,16,31.2,,
CN(C)[C@@H]1C(O)=C(C(N)=O)C(=O)[C@@]2(O)C(O)=C3C(=O)c4c(O)cccc4[C@@](C)(O)[C@H]3[C@H](O)[C@@H]12 [OXYTETRACYCLINE],,0.1,,4,0.39,,
COC(=O)[C@H]1[C@H]2C[C@@H]3c4[nH]c5cc(OC)ccc5c4CCN3C[C@H]2C[C@@H](OC(=O)c2cc(OC)c(OC)c(OC)c2)[C@@H]1OC [RESERPINE],,62,,,,,
CO[C@H]1/C=C/O[C@@]2(C)Oc3c(C)c(O)c4c(O)c(c(/C=N/N5CCN(C)CC5)c(O)c4c3C2=O)NC(=O)/C(C)=C\C=C\[C@H](C)[C@H](O)[C@@H](C)[C@@H](O)[C@@H](C)[C@H](OC(C)=O)[C@@H]1C [RIFAMPIN],,1.9,,2.1,3.9,,
CCCCCCCCCCCCOS(=O)(=O)[O-].[Na+] [SODIUM LAURYL SULFATE],,31.2,,8,250,,
CN[C@@H]1[C@H](O[C@H]2[C@H](O[C@H]3[C@H](O)[C@@H](O)[C@H](N=C(N)N)[C@@H](O)[C@@H]3N=C(N)N)O[C@@H](C)[C@]2(O)C=O)O[C@@H](CO)[C@H](O)[C@H]1O [STREPTOMYCIN],,0.78,,8,6.25,,
COc1cc(NS(=O)(=O)c2ccc(N)cc2)nc(OC)n1 [SULFADIMETHOXINE],,4.88,,2,9.76,,
[Cl-].c1ccc([P+](c2ccccc2)(c2ccccc2)c2ccccc2)cc1 [TETRAPHENYLPHOSPHONIUM CHLORIDE],,9.76,,16,156,,
COc1cc(Cc2cnc(N)nc2N)cc(OC)c1OC [TRIMETHOPRIM],,0.02,,8.2,0.16,,
Cetyltrimethylammonium bromide,,3.9,,,7.8,,

# Source: ChEMBL document CHEMBL1687808, “LmrS is a multidrug efflux pump of the major facilitator superfamily from Staphylococcus aureus” (2010)
